Laboratory results taken from article PMC11243058, “Identification of Novel Isatin Derivative Bearing a Nitrofuran Moiety as Potent Multi-Isoform Aldehyde Dehydrogenase Inhibitor” (Molecules, 2024).
Like-named read-outs stand apart in the source and are kept apart here.

How the values were obtained:
HCT-116 = test: Cell viability assay (MTS), HCT-116; assay type: cell-based, human; settings: 48 h, mean ± SD
Protocol: (§1) Five thousand cells/well were plated in 96-well plates in growth media and left for attachment for 24 h. The cells were then treated with the respective compounds using varying concentrations for 48 h. At the end of the treatment duration, a solution of MTS [3-(4,5-dimethylthiazol-2-yl)-5-(3-carboxymethoxyphenyl)-2-(4-sulfophenyl)-2H-tetrazolium] and an electron coupling reagent, PES (phenazine ethosulfate) (Promega, Madison, WI, USA) was added to the cells. Then, 15 μL of MTS reagent was added to each well, and the absorbance was assessed at 490 nm with a microplate reader (Dynex Technologies, MRX Revelation; Chantilly, VA, USA) after 1 h incubation with MTS. The data were recorded, and the IC50 value was calculated using non-linear curve regression analysis (Graph pad V8.0, CA, USA).

FHC = test: Cell viability assay (MTS), FHC; assay type: cell-based; settings: normal fetal human cells, 48 h, mean ± SD
Protocol: as §1

SKOV-3 = test: Cell viability assay (MTS), SKOV-3; assay type: cell-based, human; settings: 48 h, mean ± SD
Protocol: as §1

MiaPaCa-2 = test: Cell viability assay (MTS), MiaPaCa-2; assay type: cell-based, human; settings: 48 h, mean ± SD
Protocol: as §1

[1] = system: SKOV-3, MiaPaCa-2, HCT-116, HEK-293, and FHC cell lines; test: Cell viability assay (MTS), statements over the cell line panel; assay type: cell-based, human; settings: for IC50: read-out: IC50 in cancer cell lines; for IC50 / cytotoxicity against the tested cell lines: range or statement over all tested cell lines
Protocol: as §1

HEK-293 = test: Cell viability assay (MTS), HEK-293; assay type: cell-based; settings: 48 h, mean ± SD
Protocol: as §1

ALDH3A1 = target: T1, ALDH3A1 (Homo sapiens, UniProt P30838); test: ALDH isoform-specific enzyme inhibition assay, ALDH3A1; assay type: biochemical; settings: Acetaldehyde (Substrate)
T1 construct: purchased R&D systems
T1 sequence (P30838 1-453): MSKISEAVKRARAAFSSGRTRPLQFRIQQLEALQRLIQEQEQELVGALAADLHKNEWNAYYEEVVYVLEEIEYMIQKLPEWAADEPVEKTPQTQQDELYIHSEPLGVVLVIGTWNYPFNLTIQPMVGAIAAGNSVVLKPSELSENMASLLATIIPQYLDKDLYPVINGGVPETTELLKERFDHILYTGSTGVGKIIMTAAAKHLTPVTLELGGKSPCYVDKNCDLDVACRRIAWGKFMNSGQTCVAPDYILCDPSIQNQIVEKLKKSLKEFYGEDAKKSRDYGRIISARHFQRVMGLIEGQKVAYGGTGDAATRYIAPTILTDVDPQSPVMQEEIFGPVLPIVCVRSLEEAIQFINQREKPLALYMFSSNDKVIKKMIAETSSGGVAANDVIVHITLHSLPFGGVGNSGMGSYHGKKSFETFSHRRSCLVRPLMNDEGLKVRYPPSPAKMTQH
Protocol: (§2) ALDH1A1, ALDH3A1, and ALDH1A3 enzyme inhibition assays were performed as reported previously. Briefly, 500 ng/100 uL of ALDH1A1, ALDH3A1, and ALDH1A3 were treated with 500 nM concentration of the tested compounds and incubated for 15 min followed by the addition of reaction mixture (substrate + Substrate mixture). […] The absorbance was measured at 450 nm. [Absorbance Control–Absorbance treated/Absorbance Control]100 was used to compute the percentage of inhibition.

ALDH1A1 = target: T2, ALDH1A1 (Homo sapiens, UniProt P00352); test: ALDH isoform-specific enzyme inhibition assay, ALDH1A1; assay type: biochemical; settings: Acetaldehyde (Substrate)
T2 construct: purchased R&D systems
T2 sequence (P00352 1-501): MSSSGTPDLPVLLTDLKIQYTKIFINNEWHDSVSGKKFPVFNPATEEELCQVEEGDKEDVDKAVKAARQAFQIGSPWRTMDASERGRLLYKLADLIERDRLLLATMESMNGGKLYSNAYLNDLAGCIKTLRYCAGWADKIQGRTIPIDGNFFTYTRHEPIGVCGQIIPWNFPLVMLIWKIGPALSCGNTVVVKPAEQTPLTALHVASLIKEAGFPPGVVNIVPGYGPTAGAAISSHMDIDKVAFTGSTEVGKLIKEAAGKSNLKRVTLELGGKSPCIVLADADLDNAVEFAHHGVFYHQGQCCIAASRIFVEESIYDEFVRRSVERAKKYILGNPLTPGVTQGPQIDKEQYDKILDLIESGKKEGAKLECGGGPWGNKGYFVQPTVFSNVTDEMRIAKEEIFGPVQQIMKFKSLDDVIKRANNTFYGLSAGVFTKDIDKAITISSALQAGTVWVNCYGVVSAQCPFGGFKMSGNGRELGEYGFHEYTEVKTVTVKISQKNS
Protocol: as §2

[2] = Homo sapiens, HCT-116, colon cancer cells
[3] = Homo sapiens, SK-OV-3, ovarian cancer cells
[4] = Homo sapiens, MIA PaCa-2, pancreatic cancer cells
[5] = Homo sapiens, Pancreatic cancer cell, 48 h
[6] = HEK293, human embryonic kidney cells
[7] = Homo sapiens, Pancreatic cancer cell, ovarian, colon, and pancreatic cancer cells, 48 h MTS

Row | Molecule | IC50 (HCT-116; [2]) | IC50 (FHC; FHC) | melting point | IC50 (SKOV-3; [3]) | IC50 (MiaPaCa-2; [4]) | IC50 [1, 5] | IC50 (HEK-293; [6]) | IC50 [1, 7] | IC50 / cytotoxicity against the tested cell lines ([1]; 48 h MTS) | IC50 (HCT-116; colon cancer cells) | IC50 (FHC) | IC50 (SKOV-3; ovarian cancer cells) | % Enzyme Inhibition at 500 nM ALDH3A1 (ALDH3A1) | IC50 (MiaPaCa-2; pancreatic cancer cells) | IC50 ([1]; ovarian, colon, and pancreatic cancer cells, 48 h MTS) | % Enzyme Inhibition at 500 nM ALDH1A1 (ALDH1A1) | IC50 (HEK-293; human embryonic kidney cells)
1 | Br.N=C(N)SCc1ccc(Cn2cc3cc(C(F)(F)F)ccc3n2)cc1 [Compound 13, 4-((5-(Trifluoromethyl)-2H-indazol-2-yl)methyl)benzyl carbamimidothioate hydrobromide] | 18.2 ± 3.1 µM | 14.4 ± 2.3 µM | 181 to 183 °C | 22.7 ± 2.3 µM | 33.2 ± 4.4 µM | 4.7 to 33 µM | 18.9 ± 5.1 µM |  |  |  |  |  |  |  |  |  | 
2 | Br.N=C(N)SCc1ccc(Cn2cc3cccc(C(F)(F)F)c3n2)cc1 [Compound 15, 4-((7-(Trifluoromethyl)-2H-indazol-2-yl)methyl)benzyl carbamimidothioate hydrobromide] | > 50 µM | > 50 µM | 195 to 197 °C | > 50 µM | > 50 µM | > 50 µM | > 50 µM |  |  |  |  |  |  |  |  |  | 
3 | O=Cc1ccc(Cn2nc(Br)c3cc(C(F)(F)F)ccc32)cc1 [Compound 20, 4-((3-Bromo-5-(trifluoromethyl)-1H-indazol-1-yl)methyl)benzaldehyde] | > 50 µM | > 50 µM |  | > 50 µM | > 50 µM |  | > 50 µM | > 50 µM |  |  |  |  |  |  |  |  | 
4 | Br.COc1ccc2c(c1)c(Br)nn2Cc1ccc(CSC(=N)N)cc1 [Compound 18, 4-((3-Bromo-5-methoxy-1H-indazol-1-yl)methyl)benzyl carbamimidothioate hydrobromide] | 39.2 ± 3.9 µM | > 50 µM | 171 to 173 °C | 42.2 ± 5.8 µM | 44.6 ± 3.7 µM | > 50 µM | > 50 µM |  |  |  |  |  |  |  |  |  | 
5 | CN(C)CCC(=O)c1ccc(Cn2nc(Br)c3cc(C(F)(F)F)ccc32)cc1.Cl [Compound 21, 1-(4-((3-Bromo-5-(trifluoromethyl)-1H-indazol-1-yl)methyl)phenyl)-3-(dimethylamino)propan-1-one hydrochloride] | > 50 µM | > 50 µM | 171 to 173 °C | > 50 µM | > 50 µM | > 50 µM | > 50 µM |  |  |  |  |  |  |  |  |  | 
6 | COC(=O)/C=C/c1ccc(Cn2cc3cc(C(F)(F)F)ccc3n2)cc1 [Compound 9, Methyl (E)-3-(4-((5-(trifluoromethyl)-2H-indazol-2-yl)methyl)phenyl)acrylate] | > 50 µM | > 50 µM |  | > 50 µM | > 50 µM |  | > 50 µM | > 50 µM |  |  |  |  |  |  |  |  | 
7 | COC(=O)/C=C/c1ccc(Cn2ncc3cc(C(F)(F)F)ccc32)cc1 [Compound 8, Methyl (E)-3-(4-((5-(trifluoromethyl)-1H-indazol-1-yl)methyl)phenyl)acrylate] | > 50 µM | > 50 µM |  | > 50 µM | > 50 µM |  | > 50 µM | > 50 µM |  |  |  |  |  |  |  |  | 
8 | Br.C=CCNC(=N)SCc1ccc(Cn2ncc3cc(C(F)(F)F)ccc32)cc1 [Compound 10, 4-((5-(Trifluoromethyl)-1H-indazol-1-yl)methyl)benzyl allylcarbamimidothioate hydrobromide] | > 50 µM | > 50 µM | 104 to 106 °C | > 50 µM | 48.4 ± 3.2 µM | > 50 µM | > 50 µM |  |  |  |  |  |  |  |  |  | 
9 | OCc1ccc(Cn2nc(Br)c3cc(C(F)(F)F)ccc32)cc1 [Compound 19, (4-((3-Bromo-5-(trifluoromethyl)-1H-indazol-1-yl)methyl)phenyl)methanol] | > 50 µM | > 50 µM |  | > 50 µM | > 50 µM |  | > 50 µM | > 50 µM |  |  |  |  |  |  |  |  | 
10 | Br.C=CCNC(=N)SCc1ccc(Cn2cc3cc(C(F)(F)F)ccc3n2)cc1 [Compound 11, 4-((5-(Trifluoromethyl)-2H-indazol-2-yl)methyl)benzyl allylcarbamimidothioate hydrobromide] | > 50 µM | > 50 µM | 105 to 107 °C | > 50 µM | > 50 µM | > 50 µM | > 50 µM |  |  |  |  |  |  |  |  |  | 
11 | Br.COc1ccc2c(c1)C(=O)C(=O)N2Cc1ccc(CSC(=N)N)cc1 [Compound 6, 4-((5-Methoxy-2,3-dioxoindolin-1-yl)methyl)benzyl carbamimidothioate hydrobromide] | > 50 µM | > 50 µM | 214 to 216 °C | 45 ± 2.5 µM | > 50 µM |  | > 50 µM |  | inert |  |  |  |  |  |  |  | 
12 | 4-((5-(Trifluoromethyl)-1H-indazol-1-yl)methyl)benzylcarbamimidothioate hydrobromide [Compound 12] |  |  |  |  |  |  |  |  |  | 5.5 ± 0.1 µM | 3.1 ± 0.8 µM | 8.2 ± 2.7 µM | −14.03 ± 0.06% | 4.7 ± 0.4 µM | 4.7 to 33 µM | 10.01 ± 0.01% | 4.7 ± 1.1 µM
13 | Br.N=C(N)SCc1ccc(Cn2ncc3cccc(C(F)(F)F)c32)cc1 [Compound 14, 4-((7-(Trifluoromethyl)-1H-indazol-1-yl)methyl)benzyl carbamimidothioate hydrobromide] | 14.2 ± 2.3 µM | 29.3 ± 4.9 µM | 206 to 208 °C | 16.8 ± 3.5 µM | 12.3 ± 2.7 µM |  | 17.7 ± 3.7 µM |  |  |  |  |  |  |  |  |  | 
14 | Br.C=CCNC(=N)SCc1ccc(CN2C(=O)C(=O)c3cc(C(F)(F)F)ccc32)cc1 [Compound 7, 4-((2,3-Dioxo-5-(trifluoromethyl)indolin-1-yl)methyl)benzyl allylcarbamimidothioate hydrobromide] | 12 ± 3.1 µM | 8.1 ± 0.8 µM | 122 to 124 °C | 9.1 ± 1.3 µM | 10.3 ± 2.4 µM |  | 9.7 ± 1.1 µM |  | less cytotoxic than KS100 |  |  |  |  |  |  |  | 
